Results published in PubChem BioAssay (NCI).
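48-hour exposure; five concentrations; linearly interpolated endpoints. GI50 marks 50% less growth. TGI: concentration producing complete growth inhibition.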

What was measured:
Assay in all cases: NCI-60 cell line screen, 48 h
SNB-75 CNS = system: SNB-75 CNS
OVCAR-4 ovarian = system: OVCAR-4 ovarian
MDA-MB-231 breast = system: MDA-MB-231 breast
BT-549 breast = system: BT-549 breast
SK-MEL-28 melanoma = system: SK-MEL-28 melanoma
HS 578T breast = system: HS 578T breast
NCI-H460 lung = system: NCI-H460 lung
EKVX NSCLC = system: EKVX NSCLC
NCI-H226 lung = system: NCI-H226 lung
MDA-MB-435 = system: MDA-MB-435
M14 melanoma = system: M14 melanoma
SK-MEL-2 melanoma = system: SK-MEL-2 melanoma
SF-539 CNS = system: SF-539 CNS
SNB-19 CNS = system: SNB-19 CNS
MOLT-4 leukemia = system: MOLT-4 leukemia
HT29 colon = system: HT29 colon
SW-620 colon = system: SW-620 colon
U251 CNS = system: U251 CNS
RXF 393 renal = system: RXF 393 renal
A549 NSCLC = system: A549 NSCLC
COLO 205 colon = system: COLO 205 colon
SK-OV-3 ovarian = system: SK-OV-3 ovarian
SF-295 CNS = system: SF-295 CNS
UO-31 renal = system: UO-31 renal
HCT-116 colon = system: HCT-116 colon
PC-3 prostate = system: PC-3 prostate
MCF7 breast = system: MCF7 breast
NCI/ADR-RES ovarian = system: NCI/ADR-RES ovarian
HOP-92 NSCLC = system: HOP-92 NSCLC
ACHN renal = system: ACHN renal
K-562 leukemia = system: K-562 leukemia
HCT-15 colon = system: HCT-15 colon
SF-268 CNS = system: SF-268 CNS
HL-60(TB) leukemia = system: HL-60(TB) leukemia
NCI-H522 lung = system: NCI-H522 lung
KM12 colon = system: KM12 colon
HCC-2998 colon = system: HCC-2998 colon
OVCAR-3 ovarian = system: OVCAR-3 ovarian
LOX IMVI melanoma = system: LOX IMVI melanoma
MALME-3M melanoma = system: MALME-3M melanoma
CAKI-1 renal = system: CAKI-1 renal
T-47D breast = system: T-47D breast
CCRF-CEM leukemia = system: CCRF-CEM leukemia
NCI-H23 lung = system: NCI-H23 lung
IGROV1 ovarian = system: IGROV1 ovarian
DU-145 prostate = system: DU-145 prostate
OVCAR-8 ovarian = system: OVCAR-8 ovarian
SN12C renal = system: SN12C renal
OVCAR-5 ovarian = system: OVCAR-5 ovarian
SK-MEL-5 melanoma = system: SK-MEL-5 melanoma
TK-10 renal = system: TK-10 renal
SR leukemia = system: SR leukemia
UACC-62 melanoma = system: UACC-62 melanoma
786-0 renal = system: 786-0 renal
HOP-62 NSCLC = system: HOP-62 NSCLC
UACC-257 melanoma = system: UACC-257 melanoma

## COc1cc(/C=C2\Oc3cc(OCCCN4CCCC4)ccc3C2=O)cc(OC)c1
SNB-75 CNS
  GI50: 11 µM
  TGI: 22.9 µM
OVCAR-4 ovarian
  GI50: 7.16 µM
  TGI: 19.8 µM
MDA-MB-231 breast
  GI50: 3.28 µM
  TGI: 11.1 µM
BT-549 breast
  GI50: 8.76 µM
  TGI: 21.7 µM
SK-MEL-28 melanoma
  GI50: 4.12 µM
  TGI: 16 µM
HS 578T breast
  GI50: 5.15 µM
  TGI: 25.6 µM
NCI-H460 lung
  GI50: 3.43 µM
  TGI: 12.3 µM
EKVX NSCLC
  GI50: 9.6 µM
  TGI: 21.9 µM
NCI-H226 lung
  GI50: 13.8 µM
  TGI: 27 µM
MDA-MB-435
  GI50: 10.5 µM
  TGI: 22.4 µM
M14 melanoma
  GI50: 1.83 µM
  TGI: 3.75 µM
SK-MEL-2 melanoma
  GI50: 14.7 µM
  TGI: 30.2 µM
SF-539 CNS
  GI50: 1.66 µM
  TGI: 3.12 µM
SNB-19 CNS
  GI50: 3.31 µM
  TGI: 13.4 µM
MOLT-4 leukemia
  GI50: 2.59 µM
  TGI: 9.19 µM
HT29 colon
  GI50: 2.8 µM
  TGI: 8.69 µM
SW-620 colon
  GI50: 3.15 µM
  TGI: 12.4 µM
U251 CNS
  GI50: 2.38 µM
  TGI: 7.71 µM
RXF 393 renal
  GI50: 3.02 µM
  TGI: 12.3 µM
A549 NSCLC
  GI50: 3.44 µM
  TGI: 14.8 µM
COLO 205 colon
  GI50: 2.58 µM
  TGI: 8.3 µM
SK-OV-3 ovarian
  GI50: 12.9 µM
  TGI: 26.1 µM
SF-295 CNS
  GI50: 2.88 µM
  TGI: 10.6 µM
UO-31 renal
  GI50: 4.76 µM
  TGI: 18 µM
HCT-116 colon
  GI50: 2.78 µM
  TGI: 8.34 µM
PC-3 prostate
  GI50: 4.52 µM
  TGI: 18.1 µM
MCF7 breast
  GI50: 2.94 µM
  TGI: 13.4 µM
NCI/ADR-RES ovarian
  GI50: 6.17 µM
  TGI: 21.6 µM
HOP-92 NSCLC
  GI50: 3.2 µM
  TGI: 16.8 µM
ACHN renal
  GI50: 3.13 µM
  TGI: 10.7 µM
K-562 leukemia
  GI50: 2.3 µM
  TGI: 7.69 µM
HCT-15 colon
  GI50: 2.84 µM
  TGI: 12.3 µM
SF-268 CNS
  GI50: 6.1 µM
  TGI: 23.9 µM
HL-60(TB) leukemia
  GI50: 2.6 µM
  TGI: 6.66 µM
NCI-H522 lung
  GI50: 14.2 µM
  TGI: 32.7 µM
KM12 colon
  GI50: 4.82 µM
  TGI: 17.7 µM
HCC-2998 colon
  GI50: 3.91 µM
  TGI: 15 µM
OVCAR-3 ovarian
  GI50: 2.74 µM
  TGI: 8.17 µM
LOX IMVI melanoma
  GI50: 1.6 µM
  TGI: 3.05 µM
MALME-3M melanoma
  GI50: 1.77 µM
  TGI: 4.26 µM
CAKI-1 renal
  GI50: 3.54 µM
  TGI: 16.4 µM
T-47D breast
  GI50: 1.93 µM
  TGI: 4.51 µM
CCRF-CEM leukemia
  GI50: 2.76 µM
  TGI: 10.4 µM
NCI-H23 lung
  GI50: 4.75 µM
  TGI: 18.7 µM
IGROV1 ovarian
  GI50: 4.4 µM
  TGI: 16.9 µM
DU-145 prostate
  GI50: 3.68 µM
  TGI: 12.8 µM
OVCAR-8 ovarian
  GI50: 3.71 µM
  TGI: 15.4 µM
SN12C renal
  GI50: 10.3 µM
  TGI: 22 µM
OVCAR-5 ovarian
  GI50: 12.5 µM
  TGI: 25.4 µM
SK-MEL-5 melanoma
  GI50: 2 µM
  TGI: 4.6 µM
TK-10 renal
  GI50: 11.4 µM
  TGI: 25.4 µM
SR leukemia
  GI50: 1.82 µM
  TGI: 5.04 µM
UACC-62 melanoma
  GI50: 2.78 µM
  TGI: 11.7 µM
786-0 renal
  GI50: 3.86 µM
  TGI: 14.5 µM
HOP-62 NSCLC
  GI50: 3.68 µM
  TGI: 15.3 µM
UACC-257 melanoma
  GI50: 4.54 µM
  TGI: 17 µM
